Experimental findings from patent US11229597B2, “Topical doxycycline composition” (HORUS PHARMA, priority 2017, dated 2022) are described below.

The data set can be described thus: Stability tests of doxycycline (active principle content by HPLC over time). It is filed as physicochemical. The note with it: for stability of doxycycline in glycerol solution as a function of time: 25° C. (FIG. 2). The protocol: The preparation in the form of an H/L emulsion containing the active principle and cyclodextrins in solution in the polyol is carried out according to the following method: • The liquid hydrophobic material/semi-solid hydrophobic material base (called phase A) is formulated by mixing in a water bath at 75° C. to make all components miscible. For the mass ratio of liquid hydrophobic material to semi-solid hydrophobic material 0/100, the semi-solid hydrophobic material is added directly to the mixer at 45° C. • The temperature of phase A is lowered to 45° C. and then phase A is transferred to the mixer whose temperature is 45° C. • The cyclodextrin is added to the polyol (called phase B) and magnetically stirred then the doxycyline hyclate is added to phase B and magnetically stirred until all components are completely dissolved, the temperature of the solution is increased to 45° C. • When phases A and B are at the same temperature, phase B is added to phase A under stirring to form an emulsion. • The emulsion is stirred for 30 minutes at 700 rpm at 45° C. and then the temperature of the entire mixture is reduced to 37° C. • The resulting emulsion is packaged and cooled to room temperature. In order to assay of the active principle in the formulation, the following extraction is carried out: • 1.0 g of the formula is diluted in 10.0 g of water and stirred with a suitable stirring system for 30 minutes at 45° C. • After filtration with a nylon filter at 0.45 μm, a dilution in the mobile phase is performed for a high-performance liquid chromatography assay. The active principle content is determined by the following high-performance liquid chromatography method: • Column: XTerra® RP 8 5 μm 4.6×250 mm • Mobile phase: • 65% water containing 0.13% oxalic acid • 22% acetonitrile • 13% methanol • Flow rate: 1.0 mL/min
Stability tests are performed at temperatures of 25° C. and 40° C.: […]

Consider doxycycline hyclate, for which the “stability of doxycycline in glycerol solution as a function of time” value reads like this: (0.1% doxycycline hyclate in glycerol with β-cyclodextrins) “no or little degradation”; (0.1% doxycycline hyclate in glycerol without β-cyclodextrins) “no or little degradation”.

For `C[C@H]1c2cccc(O)c2C(=O)C2=C(O)[C@]3(O)C(=O)C(C(N)=O)=C(O)[C@@H](N(C)C)[C@@H]3[C@@H](O)[C@@H]21` [doxycycline], the “stability of doxycycline in aqueous solution as a function of time” value (0.1% aqueous solution, 25° C. and 40° C. (FIG. 1)) was “rapidly degraded”.
